# Measurements from US8722665B2, “Cinnamido-pyrrolo[2,1-C][1,4]benzodiazepines as potential anticancer agents and process for the preparation thereof” (Council of Scientific & Industrial Research, priority 2008, dated 2014).
# Columns and labels:
# Test in all cases: In vitro cytotoxicity (SRB)
# Assay type in all cases: cell-based, human
# [1] = system: K-562; conditions: K-562 (Leukemia); 48 h continuous drug exposure
# Method: (§1) The compounds were evaluated for in vitro anticancer activity against sixty human tumour cells derived from nine cancer types (leukemia, non-small-cell lung, colon, CNS, melanoma, ovarian, prostate, and breast cancer) as shown in Table 1a. For each compound, dose response curves for each cell line were measured at a minimum of five concentrations at 10 fold dilutions. A protocol of 48 h continuous drug exposure was used and a sulforhodamine B (SRB) protein assay was used to estimate cell viability or growth. The concentration causing 50% cell growth inhibition (GI50), total cell growth inhibition (TGI 0% growth) and 50% cell death (LC50, −50% growth) compared with the control was calculated. The Log10 GI50 (concentration in mol/L causing 50% growth inhibition) values for Cinnamido-pyrrolo[2,1-c][1,4]benzodiazepine (8b) is listed in Table 2.
# [2] = system: TK-10; conditions: TK-10 (Renal); 48 h continuous drug exposure
# Method: as §1
# [3] = system: CCRF-CEM; conditions: CCRF-CEM (Leukemia); 48 h continuous drug exposure
# Method: as §1
# [4] = system: MDA-MB-231/ATCC; conditions: MDA-MB-231/ATCC (Breast); 48 h continuous drug exposure
# Method: as §1
# [5] = system: NCI/ADR-RES; conditions: NCI/ADR-RES (Breast); 48 h continuous drug exposure
# Method: as §1
# [6] = system: HCT-116; conditions: HCT-116 (Colon); 48 h continuous drug exposure
# Method: as §1
# [7] = system: 786-0; conditions: 786-0 (Renal); 48 h continuous drug exposure
# Method: as §1
# [8] = system: MOLT-4; conditions: MOLT-4 (Leukemia); 48 h continuous drug exposure
# Method: as §1
# [9] = system: BT-549; conditions: BT-549 (Breast); 48 h continuous drug exposure
# Method: as §1
# [10] = system: HL-60(TB); conditions: HL-60(TB) (Leukemia); 48 h continuous drug exposure
# Method: as §1
# [11] = system: DU-145; conditions: DU-145 (Prostate); 48 h continuous drug exposure
# Method: as §1
# [12] = system: MDA-MB-435; conditions: MDA-MB-435 (Breast); 48 h continuous drug exposure
# Method: as §1
# [13] = system: OVCAR-3; conditions: OVCAR-3 (Ovarian); 48 h continuous drug exposure
# Method: as §1
# [14] = system: NCI-H522; conditions: NCI-H522 (Non-small cell lung); 48 h continuous drug exposure
# Method: as §1
# [15] = system: SF-295; conditions: SF-295 (CNS); 48 h continuous drug exposure
# Method: as §1
# [16] = system: LOX IMVI; conditions: LOX IMVI (Melanoma); 48 h continuous drug exposure
# Method: as §1
# [17] = system: ACHN; conditions: ACHN (Renal); 48 h continuous drug exposure
# Method: as §1
# [18] = system: CAKI-1; conditions: CAKI-1 (Renal); 48 h continuous drug exposure
# Method: as §1
# [19] = system: NCI-H226; conditions: NCI-H226 (Non-small cell lung); 48 h continuous drug exposure
# Method: as §1
# [20] = system: IGROV1; conditions: IGROV1 (Ovarian); 48 h continuous drug exposure
# Method: as §1
# [21] = system: UACC-62; conditions: UACC-62 (Melanoma); 48 h continuous drug exposure
# Method: as §1
# [22] = system: SR; conditions: SR (Leukemia); 48 h continuous drug exposure
# Method: as §1
# [23] = system: NCI-H23; conditions: NCI-H23 (Non-small cell lung); 48 h continuous drug exposure
# Method: as §1
# [24] = system: MALME-3M; conditions: MALME-3M (Melanoma); 48 h continuous drug exposure
# Method: as §1
# [25] = system: HOP-92; conditions: 48 h continuous drug exposure
# Method: as §1
# [26] = system: NCI-H322M; conditions: NCI-H322M (Non-small cell lung); 48 h continuous drug exposure
# Method: as §1
# [27] = system: T-47D; conditions: T-47D (Breast); 48 h continuous drug exposure
# Method: as §1
# [28] = system: SF-268; conditions: SF-268 (CNS); 48 h continuous drug exposure
# Method: as §1
# [29] = system: A498; conditions: A498 (Renal); 48 h continuous drug exposure
# Method: as §1
# [30] = system: SK-MEL-5; conditions: SK-MEL-5 (Melanoma); 48 h continuous drug exposure
# Method: as §1
# [31] = system: HCC-2998; conditions: HCC-2998 (Colon); 48 h continuous drug exposure
# Method: as §1
# [32] = system: HT29; conditions: HT29 (Colon); 48 h continuous drug exposure
# Method: as §1
# [33] = system: OVCAR-8; conditions: OVCAR-8 (Ovarian); 48 h continuous drug exposure
# Method: as §1
# [34] = system: RXF 393; conditions: RXF 393 (Renal); 48 h continuous drug exposure
# Method: as §1
smiles,measurement,setting,value
"COc1cc(/C=C/C(=O)N2CCN(C(=O)c3cc(OC)c(OC)c(OC)c3)CC2)ccc1OCCCOc1cc2c(cc1OC)C(=O)N1CCC[C@H]1C=N2 [8b, 7-methoxy-8-{3-(2-methoxy-4-(E)-3-oxo-3-[4-(3,4,5-trimethoxybenzoyl)piperazino]-1-propenylphenoxy)propoxy}-(11aS)-2,3,5,11^a-tetrahydro-5H-pyrrolo[2,1-c][1,4]benzo-diazepine-5-one]",GI50,[1],150 nM
same,GI50,[2],690 nM
same,GI50,[3],250 nM
same,GI50,[4],230 nM
same,GI50,[5],1470 nM
same,GI50,[6],200 nM
same,GI50,[7],490 nM
same,GI50,[8],200 nM
same,GI50,[9],130 nM
same,GI50,[10],250 nM
same,GI50,[11],360 nM
same,GI50,[12],170 nM
same,GI50,[13],290 nM
same,GI50,[14],660 nM
same,GI50,[15],10 nM
same,GI50,[16],180 nM
same,GI50,[17],2750 nM
same,GI50,[18],1120 nM
same,GI50,[19],250 nM
same,GI50,[20],270 nM
same,GI50,[21],170 nM
same,GI50,[22],20 nM
same,GI50,[23],320 nM
same,GI50,[24],200 nM
same,GI50,"[25]; HOP-92, first line so named (Non-small cell lung)",320 nM
same,GI50,"[25]; HOP-92, second line so named (Non-small cell lung)",170 nM
same,GI50,[26],3.07 µM
same,GI50,[27],150 nM
same,GI50,[28],320 nM
same,GI50,[29],210 nM
same,GI50,[30],190 nM
same,GI50,[31],360 nM
same,GI50,[32],400 nM
same,GI50,[33],260 nM
same,GI50,[34],200 nM
